Test results reported in PubChem BioAssay AID1963852 (Molecular Pharmacology Branch, DTP, NCI, 2024).

Tested on: 282377-053-R-J1-PDC complex spheroid viability
Test: Anticancer human tumor 282377-053-R-J1-PDC patient-derived colon adenocarcinoma cell line growth inhibition [POLQ]
Conditions: for IC50: curve of first compound; for viability, T/C: stronger effect = lower value
Experimental: Multicellular complex tumor spheroid response to Polymerase (POL) inhibitors (novobiocin, ART-558, RP6685) in combination with a variety of drugs and investigational agents in selected tumor cell lines
The POL inhibitors (novobiocin, ART-558, and RP6685) were evaluated both individually and in combination with standard of care and investigational anticancer small molecules within a complex spheroid model of solid tumors. . Complex spheroids include a stromal component modeled by human endothelial cells (HUVEC) and fibroblasts modeled by human mesenchymal stem cells (MSCs). The concentration ranges selected for each drug and investigational agent were based upon clinically achievable concentrations if the clinical Cmax of the agent was known.
Compounds. The drugs and investigational agents: novobiocin (NSC847541), ART-558 (NSC835418), RP-6685 (NSC848927), peposertib (NSC802822), ceralasertib (NSC780249), elimusertib (NSC800525), camonsertib (NSC841442), AZD-1390 (NSC803789), olaparib (NSC753686), talazoparib (NSC767125), rucaparib (NSC756644), sotorasib (NSC818433), MRTX-1133 (NSC836407), SN-38 (NSC673596), topotecan (NSC609699), epotoside (NSC141540), doxorubicin (NSC123127), gemcitabine (NSC613327), 5-fluorouracil (NSC19893), paclitaxel (NSC125973), vemurafenib (NSC761431), MSA-2 (NSC828583), SN-011 (NSC837082), adavosertib (NSC754352), prexasertib (NSC758257), carboplatin (NSC241240) and oxaliplatin (NSC266046), were obtained from the National Cancer Institute (NCI) Developmental Therapeutics Program Chemical Repository (21). The FDA-approved anticancer drug set is available from the Developmental Therapeutics Program at https://dtp.cancer.gov/organization/dscb/obtaining/. […] The stock solutions were prepared in dimethyl sulfoxide (DMSO, Sigma-Aldrich, St. Louis, MO, cat. D2650), except for the platinum compounds which were prepared in saline (Quality Biological, Gaithersburg, MD, cat. 114-055-101), at 800-fold the tested concentration and stored at -70 degrees C prior to their use. All drugs and investigational agents were tested over a range starting from a high concentration at or near the clinical Cmax and decreasing in half-log increments. If the clinical Cmax for an agent had not been determined, the highest concentration tested was 10 microM, except for SN-38, which was tested at a high concentration of 1 microM.
Cell Culture. All cells were maintained in an incubator at 37 degrees C and 5% CO2 with 95% humidity. The PDC lines were cultured according to standard operating procedures established by the NCI PDMR (https://pdmr.cancer.gov). Table 3 of the manuscript, lists the cell lines along with the number of the three cell types plated to form the mct-spheroids and media for tumor cell growth. After thawing, all PDC lines, except 997537-175-T-J1-PDC and 415267-285-R-J2-PDC, were cultured in Matrigel-coated flasks prepared with a working solution of 1X Ham's F-12 nutrient mix, without supplementation (Thermo Fisher Scientific, cat. 11765054), 100 U/mL penicillin-streptomycin (Thermo Fisher Scientific, cat. 15140122), and 2.5% Matrigel (Corning Inc., Corning, NY, cat. 354248) for the first three passages. The two PDC lines 997537-175-T-J1-PDC and 415267-285-R-J2-PDC were cultured on uncoated flasks. The 857933-349-R-J2-PDC line was cultured in 6C/Colon 1B media containing advanced DMEM/F-12 (Thermo Fisher Scientific, cat. 12634028), 10 mM HEPES (Thermo Fisher Scientific, cat. 15630080), 1X GlutaMAX supplement (Thermo Fisher Scientific, cat. 35050061), 0.1 mg/mL primocin (InvivoGen, San Diego, CA, cat. ant-pm-2), 10% defined fetal bovine serum, heat inactivated (HyClone Laboratories Inc., Logan, UT, cat. SH30070.03HI), 50% L-WRN conditioned media (ATCC, cat. CRL-3276), 1.25 mM N-Acetyl-L-cysteine (Sigma-Aldrich, cat. A9165), 10 mM nicotinamide (Sigma-Aldrich, cat. N0636), 1X B-27 supplement (Thermo Fisher Scientific, cat. 17504044), 1X N-2 supplement (Thermo Fisher Scientific, cat. […]

[1] = second compound 0.0316 µM, first compound 0.0316 µM
[2] = second compound 0.0316 µM, first compound 0.1 µM
[3] = second compound 0.0316 µM, first compound 0.316 µM
[4] = second compound 0.0316 µM, first compound 1 µM
[5] = second compound 0.0316 µM, first compound 3.16 µM
[6] = second compound 0.0316 µM, first compound 10 µM
[7] = second compound 0.1 µM, first compound 0.0316 µM
[8] = second compound 0.1 µM, first compound 0.1 µM
[9] = second compound 0.1 µM, first compound 0.316 µM
[10] = second compound 0.1 µM, first compound 1 µM
[11] = second compound 0.1 µM, first compound 3.16 µM
[12] = second compound 0.1 µM, first compound 10 µM
[13] = second compound 0.316 µM, first compound 0.0316 µM
[14] = second compound 0.316 µM, first compound 0.1 µM
[15] = second compound 0.316 µM, first compound 0.316 µM
[16] = second compound 0.316 µM, first compound 1 µM
[17] = second compound 0.316 µM, first compound 3.16 µM
[18] = second compound 0.316 µM, first compound 10 µM
[19] = second compound 1 µM, first compound 0.0316 µM
[20] = second compound 1 µM, first compound 0.1 µM
[21] = second compound 1 µM, first compound 0.316 µM
[22] = second compound 1 µM, first compound 1 µM
[23] = second compound 1 µM, first compound 3.16 µM
[24] = second compound 1 µM, first compound 10 µM
[25] = second compound 3.16 µM, first compound 0.0316 µM
[26] = second compound 3.16 µM, first compound 0.1 µM
[27] = second compound 3.16 µM, first compound 0.316 µM
[28] = second compound 3.16 µM, first compound 1 µM
[29] = second compound 3.16 µM, first compound 3.16 µM
[30] = second compound 3.16 µM, first compound 10 µM
[31] = second compound 10 µM, first compound 0.0316 µM
[32] = second compound 10 µM, first compound 0.1 µM
[33] = second compound 10 µM, first compound 0.316 µM
[34] = second compound 10 µM, first compound 1 µM
[35] = second compound 10 µM, first compound 3.16 µM
[36] = second compound 10 µM, first compound 10 µM
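Note: spheroids exposed to compounds for seven days.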
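Throughout, for viability, T/C: 100% = DMSO vehicle control viability.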

CCc1cc2c(N3CCc4c(cc(Cn5ccnc5)cc4-c4cn(C)nc4C(F)(F)F)C3=O)ccnc2c(OC)n1 + Nc1ccc(C#CCN(C(=O)Cc2ncc(C(F)(F)F)cc2C(F)(F)F)c2ccc(F)cc2)nn1
IC50 (second compound 0.0316 µM): > 10000 nM
IC50 (second compound 0.1 µM): > 10000 nM
IC50 (second compound 0.316 µM): > 10000 nM
IC50 (second compound 1 µM): > 10000 nM
IC50 (second compound 3.16 µM): > 10000 nM
IC50 (second compound 10 µM): > 10000 nM
viability, T/C [1]: 92.7%
viability, T/C [2]: 98.8%
viability, T/C [3]: 102%
viability, T/C [4]: 106%
viability, T/C [5]: 94.1%
viability, T/C [6]: 111%
viability, T/C [7]: 75.9%
viability, T/C [8]: 73.9%
viability, T/C [9]: 72.2%
viability, T/C [10]: 77.1%
viability, T/C [11]: 107%
viability, T/C [12]: 115%
viability, T/C [13]: 90.3%
viability, T/C [14]: 78.8%
viability, T/C [15]: 86.3%
viability, T/C [16]: 90.1%
viability, T/C [17]: 111%
viability, T/C [18]: 87.4%
viability, T/C [19]: 104%
viability, T/C [20]: 75.7%
viability, T/C [21]: 84.1%
viability, T/C [22]: 90.5%
viability, T/C [23]: 102%
viability, T/C [24]: 108%
viability, T/C [25]: 103%
viability, T/C [26]: 92.7%
viability, T/C [27]: 88.8%
viability, T/C [28]: 109%
viability, T/C [29]: 96.7%
viability, T/C [30]: 123%
viability, T/C [31]: 95.5%
viability, T/C [32]: 106%
viability, T/C [33]: 113%
viability, T/C [34]: 108%
viability, T/C [35]: 138%
viability, T/C [36]: 127%

COc1cccc2c1C(=O)c1c(O)c3c(c(O)c1C2=O)CC(O)(C(=O)CO)CC3OC1CC(N)C(O)C(C)O1 (centres undefined) + Nc1ccc(C#CCN(C(=O)Cc2ncc(C(F)(F)F)cc2C(F)(F)F)c2ccc(F)cc2)nn1
IC50 (second compound 0.0316 µM): 1960 nM
IC50 (second compound 0.1 µM): 2100 nM
IC50 (second compound 0.316 µM): 2020 nM
IC50 (second compound 1 µM): 1910 nM
IC50 (second compound 3.16 µM): 1830 nM
IC50 (second compound 10 µM): 1910 nM
viability, T/C [1]: 99.2%
viability, T/C [2]: 98.9%
viability, T/C [3]: 123%
viability, T/C [4]: 94.6%
viability, T/C [5]: 17.8%
viability, T/C [6]: 3%
viability, T/C [7]: 107%
viability, T/C [8]: 108%
viability, T/C [9]: 110%
viability, T/C [10]: 110%
viability, T/C [11]: 17.6%
viability, T/C [12]: 2.63%
viability, T/C [13]: 92.8%
viability, T/C [14]: 108%
viability, T/C [15]: 130%
viability, T/C [16]: 103%
viability, T/C [17]: 15.8%
viability, T/C [18]: 3.07%
viability, T/C [19]: 94.2%
viability, T/C [20]: 120%
viability, T/C [21]: 128%
viability, T/C [22]: 100%
viability, T/C [23]: 10.8%
viability, T/C [24]: 4.26%
viability, T/C [25]: 104%
viability, T/C [26]: 108%
viability, T/C [27]: 123%
viability, T/C [28]: 96%
viability, T/C [29]: 8.6%
viability, T/C [30]: 3.58%
viability, T/C [31]: 119%
viability, T/C [32]: 142%
viability, T/C [33]: 127%
viability, T/C [34]: 105%
viability, T/C [35]: 6.84%
viability, T/C [36]: 3.41%
